ChEMBL document CHEMBL5303573, “Mapping human microbiome drug metabolism by gut bacteria and their genes” (Nature, 2019)

What was measured:
[1] = The drug is tested on Collinsella intestinalis strain: DSM13280 for biotransformation. The drug concentrations were measured before and after a 12-h incubation by liquid-chromatography-coupled mass spectrometry (LC–MS); settings: 2 µM
[2] = The drug is tested on Eggerthella lenta strain: ATCC25559 for biotransformation. The drug concentrations were measured before and after a 12-h incubation by liquid-chromatography-coupled mass spectrometry (LC–MS); settings: 2 µM
[3] = The drug is tested on Alistipes indistinctus strain: DSM22520 for biotransformation. The drug concentrations were measured before and after a 12-h incubation by liquid-chromatography-coupled mass spectrometry (LC–MS); settings: 2 µM
[4] = The drug is tested on Bacteroides fragilis strain: ATCC43859 for biotransformation. The drug concentrations were measured before and after a 12-h incubation by liquid-chromatography-coupled mass spectrometry (LC–MS); settings: 2 µM
[5] = parabacteroides johnsonii, 12 h, 2 µM
Description: The drug is tested on Parabacteroides johnsonii strain: DSM18315 for biotransformation. The drug concentrations were measured before and after a 12-h incubation by liquid-chromatography-coupled mass spectrometry (LC–MS)

[6] = victivallis vadensis, 12 h, 2 µM
Description: The drug is tested on Victivallis vadensis strain: ATCC BAA-548 for biotransformation. The drug concentrations were measured before and after a 12-h incubation by liquid-chromatography-coupled mass spectrometry (LC–MS)

[7] = akkermansia muciniphila, 12 h, 2 µM
Description: The drug is tested on Akkermansia muciniphila strain: ATCC BAA-835 for biotransformation. The drug concentrations were measured before and after a 12-h incubation by liquid-chromatography-coupled mass spectrometry (LC–MS)

[8] = The drug is tested on Clostridium hathewayi strain: DSM13479 for biotransformation. The drug concentrations were measured before and after a 12-h incubation by liquid-chromatography-coupled mass spectrometry (LC–MS); settings: hungatella hathewayi, 2 µM
[9] = The drug is tested on Clostridium spiroforme strain: DSM1552 for biotransformation. The drug concentrations were measured before and after a 12-h incubation by liquid-chromatography-coupled mass spectrometry (LC–MS); settings: thomasclavelia spiroformis, 2 µM
[10] = The drug is tested on Salmonella typhimurium strain: LT2 for biotransformation. The drug concentrations were measured before and after a 12-h incubation by liquid-chromatography-coupled mass spectrometry (LC–MS); settings: salmonella enterica subsp. enterica, 2 µM

Row | SMILES | Bacterial Biotransformation [1] | Bacterial Biotransformation [2] | Bacterial Biotransformation [3] | Bacterial Biotransformation [4] | Bacterial Biotransformation [5] | Bacterial Biotransformation [6] | Bacterial Biotransformation [7] | Bacterial Biotransformation [8] | Bacterial Biotransformation [9] | Bacterial Biotransformation [10]
1 | CS(=O)(=O)O.O.O.O.O=C1Cc2cc(CCN3CCN(c4nsc5ccccc45)CC3)c(Cl)cc2N1 [ZIPRASIDONE MESYLATE] | Compound NOT metabolized | Compound NOT metabolized | Compound metabolized | Compound NOT metabolized | Compound NOT metabolized | Compound NOT metabolized | Compound NOT metabolized | – | – | –
2 | O=C1C(CC[S+]([O-])c2ccccc2)C(=O)N(c2ccccc2)N1c1ccccc1 (stereo unspecified) [SULFINPYRAZONE] | Compound NOT metabolized | Compound metabolized | Compound NOT metabolized | Compound metabolized | Compound NOT metabolized | Compound NOT metabolized | Compound NOT metabolized | Compound NOT metabolized | Compound NOT metabolized | –
3 | CCCCc1nc(Cl)c(CO)n1Cc1ccc(-c2ccccc2-c2nn[nH]n2)cc1 [LOSARTAN] | Compound NOT metabolized | Compound NOT metabolized | Compound NOT metabolized | Compound metabolized | Compound metabolized | Compound NOT metabolized | Compound metabolized | – | – | –
4 | CN(C)CCc1c[nH]c2ccc(Cn3cncn3)cc12.O=C(O)c1ccccc1 [RIZATRIPTAN BENZOATE] | Compound NOT metabolized | Compound NOT metabolized | Compound NOT metabolized | Compound NOT metabolized | – | Compound NOT metabolized | Compound NOT metabolized | – | – | –
5 | CCCN(CCC)CCc1cccc2c1CC(=O)N2 [ROPINIROLE] | Compound NOT metabolized | Compound NOT metabolized | – | Compound NOT metabolized | Compound NOT metabolized | Compound NOT metabolized | Compound NOT metabolized | – | – | –
6 | O=C(NCc1ccccc1)OCCO [BURAMATE] | Compound NOT metabolized | Compound NOT metabolized | Compound NOT metabolized | Compound NOT metabolized | Compound NOT metabolized | Compound NOT metabolized | Compound NOT metabolized | – | – | –
7 | O=C(O)CCC(=O)O.O=C(O[C@H]1CN2CCC1CC2)N1CCc2ccccc2[C@@H]1c1ccccc1 [SOLIFENACIN SUCCINATE] | Compound NOT metabolized | Compound NOT metabolized | – | Compound NOT metabolized | Compound NOT metabolized | Compound NOT metabolized | Compound NOT metabolized | – | – | –
8 | CC[C@@]1(O)C(=O)OCc2c1cc1n(c2=O)Cc2cc3c(CN(C)C)c(O)ccc3nc2-1 [TOPOTECAN] | Compound NOT metabolized | Compound NOT metabolized | – | Compound NOT metabolized | Compound NOT metabolized | Compound NOT metabolized | Compound NOT metabolized | – | – | –
9 | CC(N)C12CC3CC(CC(C3)C1)C2 (stereo unspecified) [RIMANTADINE] | Compound NOT metabolized | Compound NOT metabolized | Compound NOT metabolized | Compound NOT metabolized | Compound NOT metabolized | Compound NOT metabolized | – | – | – | –
10 | COc1ccc(C(CN(C)C)C2(O)CCCCC2)cc1 (stereo unspecified) [VENLAFAXINE] | Compound NOT metabolized | Compound NOT metabolized | Compound NOT metabolized | Compound NOT metabolized | Compound NOT metabolized | Compound NOT metabolized | Compound NOT metabolized | – | – | –
11 | CCN(C)C(=O)Oc1cccc([C@H](C)N(C)C)c1.O=C(O)C(O)C(O)C(=O)O [RIVASTIGMINE TARTRATE] | Compound NOT metabolized | Compound NOT metabolized | – | Compound NOT metabolized | Compound NOT metabolized | Compound NOT metabolized | Compound NOT metabolized | – | – | –
12 | CCC(COC(=O)c1cc(OC)c(OC)c(OC)c1)(c1ccccc1)N(C)C.O=C(O)/C=C\C(=O)O (stereo unspecified) | Compound metabolized | Compound metabolized | Compound metabolized | Compound NOT metabolized | Compound metabolized | Compound metabolized | Compound metabolized | – | – | –
13 | CC(C)NCC(O)c1ccc(NS(C)(=O)=O)cc1 (stereo unspecified) [SOTALOL] | Compound NOT metabolized | Compound NOT metabolized | Compound NOT metabolized | Compound metabolized | Compound NOT metabolized | Compound NOT metabolized | Compound NOT metabolized | – | – | –
14 | CC(=O)CC(c1ccccc1)c1c(O)c2ccccc2oc1=O (stereo unspecified) [WARFARIN] | Compound NOT metabolized | Compound NOT metabolized | – | Compound metabolized | Compound NOT metabolized | Compound NOT metabolized | Compound NOT metabolized | – | – | –
15 | O=c1[nH]c2ccccc2n1C1CCN(CCCC(c2ccc(F)cc2)c2ccc(F)cc2)CC1 [PIMOZIDE] | Compound NOT metabolized | – | Compound NOT metabolized | Compound NOT metabolized | Compound NOT metabolized | Compound NOT metabolized | Compound NOT metabolized | – | – | Compound NOT metabolized
16 | CN1[C@@H]2CC[C@H]1C[C@@H](OC(=O)c1c[nH]c3ccccc13)C2 [TROPISETRON] | Compound NOT metabolized | Compound NOT metabolized | Compound NOT metabolized | Compound NOT metabolized | Compound NOT metabolized | Compound NOT metabolized | Compound NOT metabolized | – | – | –
17 | CC(CN(C)C)CN1c2ccccc2CCc2ccccc21.O=C(O)/C=C\C(=O)O (stereo unspecified) [TRIMIPRAMINE MALEATE] | Compound NOT metabolized | Compound NOT metabolized | Compound NOT metabolized | Compound NOT metabolized | Compound NOT metabolized | Compound NOT metabolized | Compound NOT metabolized | – | – | –
18 | COc1cc2nc(N3CCN(C(=O)c4ccco4)CC3)nc(N)c2cc1OC [PRAZOSIN] | Compound NOT metabolized | – | – | Compound NOT metabolized | Compound NOT metabolized | – | Compound NOT metabolized | Compound NOT metabolized | Compound NOT metabolized | –
19 | CC1=C(CC(=O)O)c2cc(F)ccc2/C1=C\c1ccc([S+](C)[O-])cc1 (stereo unspecified) | Compound NOT metabolized | Compound NOT metabolized | Compound NOT metabolized | Compound NOT metabolized | Compound NOT metabolized | Compound NOT metabolized | Compound NOT metabolized | – | – | –
20 | CN(C/C=C/C#CC(C)(C)C)Cc1cccc2ccccc12 [TERBINAFINE] | Compound NOT metabolized | Compound NOT metabolized | Compound NOT metabolized | Compound NOT metabolized | Compound NOT metabolized | Compound NOT metabolized | Compound NOT metabolized | – | – | –
21 | C=CC[C@@H]1/C=C(\C)C[C@H](C)C[C@H](OC)[C@H]2O[C@@](O)(C(=O)C(=O)N3CCCC[C@H]3C(=O)O[C@H](/C(C)=C/[C@@H]3CC[C@@H](O)[C@H](OC)C3)[C@H](C)[C@@H](O)CC1=O)[C@H](C)C[C@@H]2OC.O [TACROLIMUS] | Compound metabolized | Compound metabolized | Compound metabolized | Compound NOT metabolized | Compound metabolized | Compound metabolized | Compound metabolized | – | – | –
22 | CCN(CC)CCCC(C)Nc1c2ccc(Cl)cc2nc2ccc(OC)cc12 (stereo unspecified) [QUINACRINE] | Compound NOT metabolized | Compound NOT metabolized | – | Compound NOT metabolized | – | Compound NOT metabolized | Compound NOT metabolized | – | – | –
